Laboratory results from PMC4551947 (Nucleic Acids Research, 2015).

T1: NTD (isolated N-terminal SPOUT domain of EcTrmJ) (Escherichia coli, UniProt P0AE01)
T1 sequence (P0AE01 1-170): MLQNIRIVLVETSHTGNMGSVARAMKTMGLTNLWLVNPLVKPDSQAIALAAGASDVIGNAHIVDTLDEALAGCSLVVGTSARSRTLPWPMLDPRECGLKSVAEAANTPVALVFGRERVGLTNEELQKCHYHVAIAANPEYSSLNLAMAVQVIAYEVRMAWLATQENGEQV

B1: Escherichia coli TrmJ (EcTrmJ), tRNA Xm32 methyltransferase, full-length (enzyme, Escherichia coli K-12 MG1655, UniProt P0AE01 1-246, looked up)
chain: MLQNIRIVLVETSHTGNMGSVARAMKTMGLTNLWLVNPLVKPDSQAIALAAGASDVIGNAHIVDTLDEALAGCSLVVGTSARSRTLPWPMLDPRECGLKSVAEAANTPVALVFGRERVGLTNEELQKCHYHVAIAANPEYSSLNLAMAVQVIAYEVRMAWLATQENGEQVEHEETPYPLVDDLERFYGHLEQTLLATGFIRENHPGQVMNKLRRLFTRARPESQELNILRGILASIEQQNKGNKAE

Columns and labels:
[1] = molecular target: T1, NTD (isolated N-terminal SPOUT domain of EcTrmJ); assay: isothermal titration calorimetry; type: binding; settings: 25 °C, 20 mM Tris-HCl pH 7.5, 100 mM NaCl, 10 mM MgCl2
crystal structure = molecular target: the molecule itself; assay: crystal structure

| Molecule | KD [1] | stoichiometry N (crystal structure) |
| --- | --- | --- |
| Nc1ncnc2c1ncn2[C@@H]1O[C@H](CSCC[C@H](N)C(=O)O)[C@@H](O)[C@H]1O [SAH] | NTD alone could bind SAH as effectively as full-length EcTrmJ | – |
| B1 | – | 2 |
